According to patent US8158021B2, “Polymerizable liquid crystal compound, polymerizable liquid crystal composition, liquid crystalline polymer, and optical anisotropic article” (Zeon Corporation, priority 2007, dated 2012):

Experiments:
[1] = Formation of cholesteric phase in cured liquid crystalline polymer film; format: physicochemical; set-up: key: A case where a cholesteric phase was formed is indicated by “Formed”; a case where a cholesteric phase was not formed is indicated by “Not formed”; conditions: composition with polymerizable chiral compound; cured film 4 μm; transmission spectrum
Experimental: The polymerizable liquid crystal composition solution was applied to a glass substrate provided with a rubbed polyimide alignment film using a bar coater (“SA-203” manufactured by Tester Sangyo Co., Ltd., Rod No. 8, shaft diameter: 12.7 mm). After drying the resulting film on a hot plate at 100° C. for three minutes, ultraviolet rays (1000 mJ/cm^2) were applied to the film from a mercury lamp to obtain a cured liquid crystalline polymer film having a thickness of 4 μm.
The transmission spectrum of the cured film was measured using a spectrophotometer (“MCPD-3000” manufactured by Otsuka Electronics Co., Ltd.). A selective reflection region (i.e., a region in which the transmittance was about 50%) was observed when a cholesteric phase was formed. The bandwidth was about 50 to 100 nm. A case where a cholesteric phase was formed is indicated by “Formed”, and a case where a cholesteric phase was not formed is indicated by “Not formed”.

[2] = Measurement of phase transition temperature (liquid crystallinity temperature range); format: physicochemical
Experimental: The substrates were heated from 30° C. to 250° C. on a hot plate, and then cooled to 30° C. A change in structure during a change in temperature was observed using a polarization optical microscope (“ECLIPSE LV100POL” manufactured by Nikon Corporation) to measure the phase transition temperature.
In Table 1, “C” indicates “Crystal”, “N” indicates “Nematic”, and “I” indicates “Isotropic”.

[3] = Measurement of optical anisotropy (value Δn) of cured polymer film; format: physicochemical; conditions: cured polymer film 1.5 μm; retardation at 545.3 nm; Δn=Re/d
Experimental: 2.7 parts of a photoinitiator (“Irgacure 907” manufactured by Ciba Specialty Chemicals Co., Ltd.) was then homogenously dissolved in the solution. The resulting solution was applied to a glass substrate provided with a rubbed polyimide alignment film using a bar coater (“SA-203” manufactured by Tester Sangyo Co., Ltd., Rod No. 4, shaft diameter: 12.7 mm). After drying the resulting film on a hot plate at 100° C. for two minutes, ultraviolet rays (700 mJ/cm^2) were applied to the film from a mercury lamp to obtain a cured polymer film having a thickness of 1.5 μm.
The retardation (Re) of the cured film at a wavelength of 545.3 nm was measured using an ellipsometer (“XLS-100” manufactured by J. A. Woollam). The thickness (d) of the liquid crystal layer was also measured, and the value Δn was calculated by “Δn=Re/d”.

[4] = Solubility in cyclopentanone; conditions: in cyclopentanone at 60° C., compound concentration 40 wt %
Experimental: The solubility of the compound at 60° C. was evaluated when preparing the solution having a compound concentration of 40 wt %.

[5] = Mutual solubility when forming the cured film; conditions: at 23° C., naked eye observation of turbidity
Experimental: When forming the cured film of the compound, the mutual solubility of the compound at 23° C. was evaluated by naked eye observation. A case where turbidity was not observed is indicated by “Good”, and a case where turbidity was observed is indicated by “Bad”.

[6] = heated from 30° C. to 250° C., then cooled to 30° C., polarization optical microscope

Cholesteric phase [1] | Liquid crystallinity temperature range [2, 6] | Δn [3] | Liquid crystallinity temperature range ([2]; summary of Table 1) | Solubility [4] | Mutual solubility [5] | SMILES
Formed | 175 °C or more | 0.199 | – | – | – | C=CC(=O)OCCCCCCOc1ccc(C(=O)Oc2ccc(C=NN=Cc3ccc(OC(=O)c4ccc(OCCCCCCOC(=O)C=C)cc4)c(OCC)c3)cc2)cc1 [Polymerizable liquid crystal compound 4]
Formed | 170 °C or more | 0.202 | – | – | – | C=CC(=O)OCCCCOc1ccc(C(=O)Oc2ccc(C=NN=Cc3ccc(OC(=O)c4ccc(OCCCCOC(=O)C=C)cc4)c(OCC)c3)cc2)cc1 [Polymerizable liquid crystal compound 6]
Formed | 155 °C or more | 0.116 | – | – | – | C=CC(=O)OCCCCCCOc1ccc(C(=O)Oc2ccc(C=NN=Cc3cc(OC)c(OC(=O)c4ccc(OCCCCCCOC(=O)C=C)cc4)c(OC)c3)cc2)cc1 [Polymerizable liquid crystal compound 5]
Formed | 130 °C or more | 0.191 | – | – | – | C=CC(=O)OCCCCCCOc1ccc(C(=O)Oc2ccc(C=NN=Cc3ccc(OC(=O)c4ccc(OCCCCCCOC(=O)C=C)cc4)c(C(=O)OC)c3)cc2C(=O)OC)cc1 [Polymerizable liquid crystal compound 10]
Formed | 150 °C or more | 0.200 | – | – | – | C=CC(=O)OCCCCCCOc1ccc(C(=O)Oc2ccc(C=NN=Cc3ccc(OC(=O)c4ccc(OCCCCCCOC(=O)C=C)cc4)c(OCC)c3)cc2OCC)cc1 [Polymerizable liquid crystal compound 8]

Further lines, the compound ahead of its results:

SMILES | Cholesteric phase [1] | Liquid crystallinity temperature range [2, 6] | Δn [3] | Liquid crystallinity temperature range ([2]; summary of Table 1) | Solubility [4] | Mutual solubility [5]
C=CC(=O)OCCCCOC(=O)Oc1ccc(C(=O)Oc2ccc(OC(=O)c3ccc(OC(=O)OCCCCOC(=O)C=C)cc3)c(C)c2)cc1 [Polymerizable liquid crystal compound 12, reference compound] | – | – | – | narrow temperature range | – | –
C=CC(=O)OCCCCCCOc1ccc(C(=O)Oc2ccc(C=NN=Cc3ccc(OC(=O)c4ccc(OCCCCCCOC(=O)C=C)cc4)c(C(=O)OCCOC(=O)C=C)c3)cc2)cc1 [Polymerizable liquid crystal compound 7] | Formed | 125 °C or more | 0.187 | – | – | –
C=CC(=O)OCCCCCCOc1ccc(C(=O)Oc2ccc(C=NN=Cc3ccc(OC(=O)c4ccc(OCCCCCCOC(=O)C=C)cc4)c(C(=O)OCCOCCC)c3)cc2)cc1 [Polymerizable liquid crystal compound 3] | Formed | 190 °C or more | 0.176 | – | – | –
C=CC(=O)OCCCCOC(=O)Oc1ccc(C(=O)Oc2ccc(OC(=O)c3ccc(OC(=O)OCCCCOC(=O)C=C)cc3)c(C)c2)cc1 [compound 12] | Formed | 63 °C | 0.100 | – | Good | Good
